# In ChEMBL document CHEMBL1933009, “SAR studies on the central phenyl ring of substituted biphenyl oxazolidinone-potent CETP inhibitors” (Bioorg Med Chem Lett, 2012):
# Assays:
# [1] = molecular target: T1, Cholesteryl ester transfer protein (Homo sapiens, UniProt P11597); assay: Inhibition of CETP-mediated neutral lipid transfer by fluorometric analysis
# T1 sequence (P11597 whole entry): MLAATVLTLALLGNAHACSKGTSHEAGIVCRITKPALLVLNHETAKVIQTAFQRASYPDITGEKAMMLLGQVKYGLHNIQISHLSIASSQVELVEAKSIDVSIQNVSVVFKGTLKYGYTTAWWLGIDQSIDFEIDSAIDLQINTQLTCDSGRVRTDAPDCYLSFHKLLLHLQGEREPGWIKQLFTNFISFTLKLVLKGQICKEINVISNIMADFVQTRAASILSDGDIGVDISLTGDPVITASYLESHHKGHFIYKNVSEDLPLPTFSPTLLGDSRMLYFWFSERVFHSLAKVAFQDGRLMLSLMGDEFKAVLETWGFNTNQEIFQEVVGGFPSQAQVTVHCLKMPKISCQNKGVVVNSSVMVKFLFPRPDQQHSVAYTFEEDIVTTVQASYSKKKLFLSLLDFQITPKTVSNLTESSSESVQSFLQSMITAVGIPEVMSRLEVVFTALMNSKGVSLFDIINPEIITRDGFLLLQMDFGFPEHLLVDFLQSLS
# Mus musculus = assay: Cardioprotective activity in transgenic B6 mouse expressing cynomolgus monkey CETP assessed as increase in HDL-cholesterol level at 10 mg/kg, po BID measured after 24 hrs of first dose; format: functional
Structure (SMILES),IC50 [1] [nM],Activity (Mus musculus) [mg/dL]
COc1cc(F)c(C(C)C)cc1-c1ccc(S(C)(=O)=O)cc1CN1C(=O)O[C@H](c2cc(C(F)(F)F)cc(C(F)(F)F)c2)[C@@H]1C,33.5,
COc1cc(F)c(C(C)C)cc1-c1ccc(SC(C)C)cc1CN1C(=O)O[C@H](c2cc(C(F)(F)F)cc(C(F)(F)F)c2)[C@@H]1C,689,
COc1cc(F)c(C(C)C)cc1-c1ccc(C#N)cc1CN1C(=O)O[C@H](c2cc(C(F)(F)F)cc(C(F)(F)F)c2)[C@@H]1C,23.3,14.8
COc1cc(F)c(C(C)C)cc1-c1ccc(C(C)(C)F)cc1CN1C(=O)O[C@H](c2cc(C(F)(F)F)cc(C(F)(F)F)c2)[C@@H]1C,18,23.2
COc1cc(F)c(C(C)C)cc1-c1ccc(C(C)C)cc1CN1C(=O)O[C@H](c2cc(C(F)(F)F)cc(C(F)(F)F)c2)[C@@H]1C,54.1,
COc1cc(F)c(C(C)C)cc1-c1ccc(S(=O)(=O)C(C)C)cc1CN1C(=O)O[C@H](c2cc(C(F)(F)F)cc(C(F)(F)F)c2)[C@@H]1C,2600,
CCCSc1ccc(-c2cc(C(C)C)c(F)cc2OC)c(CN2C(=O)O[C@H](c3cc(C(F)(F)F)cc(C(F)(F)F)c3)[C@@H]2C)c1,1230,
COc1cc(F)c(C(C)C)cc1-c1ccc(C(F)(F)F)cc1CN1C(=O)O[C@H](c2cc(C(F)(F)F)cc(C(F)(F)F)c2)[C@@H]1C [ANACETRAPIB],,28
COc1cc(F)c(C(C)C)cc1-c1ccc([N+](=O)[O-])cc1CN1C(=O)O[C@H](c2cc(C(F)(F)F)cc(C(F)(F)F)c2)[C@@H]1C,13.3,21.5
COc1cc(F)c(C(C)C)cc1-c1ccc(C)cc1CN1C(=O)O[C@H](c2cc(C(F)(F)F)cc(C(F)(F)F)c2)[C@@H]1C,16.7,13.8
COc1cc(F)c(C(C)C)cc1-c1ccc(C(C)(C)O)cc1CN1C(=O)O[C@H](c2cc(C(F)(F)F)cc(C(F)(F)F)c2)[C@@H]1C,71.8,
COc1cc(F)c(C(C)C)cc1-c1ccc(Cl)cc1CN1C(=O)O[C@H](c2cc(C(F)(F)F)cc(C(F)(F)F)c2)[C@@H]1C,16.5,12.7
COc1cc(F)c(C(C)C)cc1-c1ccc(C2=CCCC2)cc1CN1C(=O)O[C@H](c2cc(C(F)(F)F)cc(C(F)(F)F)c2)[C@@H]1C,254,
COc1cc(F)c(C(C)C)cc1-c1ccc(C2CC2)cc1CN1C(=O)O[C@H](c2cc(C(F)(F)F)cc(C(F)(F)F)c2)[C@@H]1C,24.8,20.6
COc1cc(F)c(C(C)C)cc1-c1ccccc1CN1C(=O)O[C@H](c2cc(C(F)(F)F)cc(C(F)(F)F)c2)[C@@H]1C,31.2,
COc1cc(F)c(C(C)C)cc1-c1ccc(F)cc1CN1C(=O)O[C@H](c2cc(C(F)(F)F)cc(C(F)(F)F)c2)[C@@H]1C,25,8
COc1cc(F)c(C(C)C)cc1-c1ccc(N)cc1CN1C(=O)O[C@H](c2cc(C(F)(F)F)cc(C(F)(F)F)c2)[C@@H]1C,296,
COc1cc(F)c(C(C)C)cc1-c1ccc(I)cc1CN1C(=O)O[C@H](c2cc(C(F)(F)F)cc(C(F)(F)F)c2)[C@@H]1C,23.5,
COc1cc(F)c(C(C)C)cc1-c1ccc(C(C)(C)C)cc1CN1C(=O)O[C@H](c2cc(C(F)(F)F)cc(C(F)(F)F)c2)[C@@H]1C,24.9,21
COc1cc(F)c(C(C)C)cc1-c1ccc(S(=O)(=O)C(F)(F)F)cc1CN1C(=O)O[C@H](c2cc(C(F)(F)F)cc(C(F)(F)F)c2)[C@@H]1C,27.1,
COc1cc(F)c(C(C)C)cc1-c1ccc(SC)cc1CN1C(=O)O[C@H](c2cc(C(F)(F)F)cc(C(F)(F)F)c2)[C@@H]1C,16.2,16.4
COc1cc(F)c(C(C)C)cc1-c1ccc(SC(F)(F)F)cc1CN1C(=O)O[C@H](c2cc(C(F)(F)F)cc(C(F)(F)F)c2)[C@@H]1C,19.6,12.4
COc1cc(F)c(C(C)C)cc1-c1ccc(Br)cc1CN1C(=O)O[C@H](c2cc(C(F)(F)F)cc(C(F)(F)F)c2)[C@@H]1C,19.8,23
CCCS(=O)(=O)c1ccc(-c2cc(C(C)C)c(F)cc2OC)c(CN2C(=O)O[C@H](c3cc(C(F)(F)F)cc(C(F)(F)F)c3)[C@@H]2C)c1,6930,
